Usually EC50 stands for the concentration needed to bring the measured effect to its halfway point. The term Ki denotes the dissociation constant of the complex between target and ligand, obtained from inhibition or displacement.

The structures appear in SMILES notation. A value given as a limit tells only on which side of the number the result lay.

The subject of assay [1] is anti-CD3/anti-CD28/IL-23 stimulated IL-17 secretion in PBMC's. Put plainly: PBMC IL-17 secretion ELISA. The format is cell-based. The note with it: Homo sapiens, anti-CD3/anti-CD28/IL-23 stimulation, 48 hours, mean ± standard deviation, read-out: hPBMC IL-17 ELISA (EC50). The method, then: PBMC's are isolated from whole blood buffy coats by first combining fresh buffy coats with equal volumes of phosphate buffered saline. Thirty five mL of PBS/buffy coat solution are then gently overlaid onto 15 mL of Ficoll in 50 mL conical tubes. Following centrifugation for 30 minutes at 500×g (with slow acceleration and deceleration) the top layer of plasma is discarded and the layer of cells along the Ficoll interface is collected and pooled. Each 250 mL tube is filled to the top with room temperature RPMI-1640 media. Tubes are spun for 10 minutes at 500×G (with slow acceleration and deceleration), the media is removed by aspiration, and the wash step is repeated. Cells are resuspended in ice cold Recovery Cell Culture Freezing Medium from Life Technologies (Catalog number 12648-010) on ice. The cell concentration is adjusted to 66.7 million cells/mL. Cell are slow frozen at −1° C./minute in vials with 100 million cells and stored in liquid nitrogen.
PBMC are brought out of thaw by resuspending with 1 mL of complete media (RPMI-1640 containing 30 mM HEPES, 100 units/mL penicillin, 100 μg/mL streptomycin, 3.25 mM L-Glutamine, 0.2 μM beta-mercaptoethanol, and 10% FBS) followed by the drop wise addition of 2 mL, 4 mL, 8 mL, and 16 mL of complete media with gentle swirling. Cells are spun down for 5 minutes and the cell pellet is resuspended in complete media. Clumps of cells are broken up by running the cell solution through a 23 gauge syringe needle and a […] cell strainer. One hundred thousand cells per well are added to 384 well polystyrene tissue culture treated flat bottomed plates in a total of 30 μL. Stimulation cocktail containing anti-human CD3 antibody, anti-human CD28 antibody, IL-23 and compounds prepared in complete media are added to the cells simultaneously in a total volume of 30 μL. The final concentration of added stimulants is 160 ng/mL, 500 ng/mL, and 5 ng/mL for anti-CD3 antibody, anti-CD28 antibody, and IL-23 respectively and 0.3% for DMSO. Plates are sealed with AERASEAL® sealing film and incubated for 48 hours at 37° C., 95% humidity, and 5% CO2.
Following the incubation period, the plates are spun at 200×g for five minutes. Supernatants are diluted 1:1 with equal volume 1% BSA/PBS and tested for IL-17 with a human IL-17 ELISA kit from R&D system (catalog #D317E) according to the protocol provided with the kit with one exception—the colorimetric substrate OPD (o-phenylenediamine dihydrochloride, Sigma Cat #P6912) is used instead of the substrate supplied in the kit. Absorbance at 492 nm is measured with the Envision multi-label plate reader. A492 values are converted to concentration of IL-17 based on the IL-17 standard curve as shown below: pg/mL IL-17=EC50*[[(Top-Bottom)/(A492-Bottom)]-1](1/-Hill). IC50's for inhibition of IL-17 secretion is calculated based on converted values using a standard 4-parameter fit with maximum inhibition determined from the average values of wells with no added stimulants nor compounds and minimum inhibition from the average values of wells with stimulants alone and no added compound.
(In general: ELISA stands for enzyme-linked immunosorbent assay.)

Another assay relates to PBMC. Put plainly: cells. The class given is cell-based. The note with it: Homo sapiens, 48 h, read-out: Cell TiterGlo Viability (EC50, μM). The procedure:
PBMC's are isolated from whole blood buffy coats by first combining fresh buffy coats with equal volumes of phosphate buffered saline. Thirty five mL of PBS/buffy coat solution are then gently overlaid onto 15 mL of Ficoll in 50 mL conical tubes. Following centrifugation for 30 minutes at 500×g (with slow acceleration and deceleration) the top layer of plasma is discarded and the layer of cells along the Ficoll interface is collected and pooled. […] Tubes are spun for 10 minutes at 500×G (with slow acceleration and deceleration), the media is removed by aspiration, and the wash step is repeated.
Cells are spun down for 5 minutes and the cell pellet is resuspended in complete media. Clumps of cells are broken up by running the cell solution through a 23 gauge syringe needle and a 40 μM cell strainer.
Equal volumes of Cell TITERGLO® cell viability testing reagent (Promega Cat #G7573) are added to the cells remaining in the plates, and following a fifteen minute incubation with gentle shaking at room temperature luminescence is measured with the Envision multi-label plate reader. Percent cell death is calculated by setting 100% activity (cell death) to zero luminescence units and minimum activity (max number of viable cells) as the average luminescence units of wells containing stimulants alone and no added compound. IC50's are calculated using a standard four parameter fit.

The target in assay [2] is human RAR-related orphan receptor alpha (hRORα) (Homo sapiens (Human), UniProt P35398). Put plainly: RORα receptor-ligand competition binding assay. The following applies: His-tagged hRORα, [3H]-25-hydroxycholesterol; mean ± standard deviation; read-out: RORa Ki. The procedure:
(§1) His-tagged human RAR-related orphan receptor alpha (hRORα), human RAR-related orphan receptor beta (hRORβ), and human RAR-related orphan receptor gamma (hRORγ) are used for receptor-ligand competition binding assays to determine Ki values. Typical procedures are provided below.
(§2) The final wells contain 20 μg/mL aprotinin and 20 μg/mL leupeptin and 10 μM Pefabloc. Typically, receptor binding assays include radio-labeled ligands, such as 7 nM [^3H]-25-hydroxycholesterol for alpha binding, 20 nM [^3H]-3-[[4-[[3-(2,6-dichlorophenyl)-5-isopropyl-isoxazol-4-yl]methoxy]-N,2-dimethyl-anilino]methyl]benzoic acid for beta binding, and 6 nM [3H]-25-hydroxycholesterol for gamma binding, and 0.5 μg RORα receptor, 0.03 μg RORβ receptor, or 0.13 μg RORγ receptor per well. Assays are typically run in 96-well format. […] Plates are mixed for 30 minutes on an orbital shaker at room temperature. After an incubation of 4 hours, plates are read in a Wallac MICROBETA® counter.
(§3) The data are used to calculate an estimated IC50 using a four parameter logistic fit. The Kd for [^3H]-25-hydroxycholesterol for RORa and RORg, and [^3H]-3-[[4-[[3-(2,6-dichlorophenyl)-5-isopropyl-isoxazol-4-yl]methoxy]-N,2-dimethyl-anilino]methyl]benzoic acid for RORb binding, is determined by saturation binding. The IC50 values for compounds are converted to Ki using the Cheng-Prushoff equation.

For assay [3], the target named is human RORg ligand binding domain fused to yeast GAL4 DNA binding domain (Homo sapiens (Human), UniProt P51449). Put plainly: HEK293 RORg GAL4 receptor-reporter assay. The note with it: HEK293 cells, RORg-GAL4/pGL4.31 luciferase, 18 hours; mean ± standard deviation; read-out: hIC50. The class given is cell-based. A general note: A reporter such as luciferase makes a cellular process visible.

Assay [4] has as its target human RAR-related orphan receptor beta (hRORβ) (Homo sapiens (Human), UniProt Q92753). Put plainly: RORβ receptor-ligand competition binding assay. The following applies: His-tagged hRORβ; mean ± standard deviation; read-out: RORb Ki. The procedure:
as §1, §2, §3

For assay [5], the target named is human RAR-related orphan receptor gamma (hRORγ) (Homo sapiens (Human), UniProt P51449). Put plainly: RORγ receptor-ligand competition binding assay. The note with it: His-tagged hRORγ, [3H]-25-hydroxycholesterol; mean ± standard deviation; read-out: RORg Ki. The procedure: as §1, §2, §3
Sequence of human RAR-related orphan receptor gamma (hRORγ) (P51449 whole entry): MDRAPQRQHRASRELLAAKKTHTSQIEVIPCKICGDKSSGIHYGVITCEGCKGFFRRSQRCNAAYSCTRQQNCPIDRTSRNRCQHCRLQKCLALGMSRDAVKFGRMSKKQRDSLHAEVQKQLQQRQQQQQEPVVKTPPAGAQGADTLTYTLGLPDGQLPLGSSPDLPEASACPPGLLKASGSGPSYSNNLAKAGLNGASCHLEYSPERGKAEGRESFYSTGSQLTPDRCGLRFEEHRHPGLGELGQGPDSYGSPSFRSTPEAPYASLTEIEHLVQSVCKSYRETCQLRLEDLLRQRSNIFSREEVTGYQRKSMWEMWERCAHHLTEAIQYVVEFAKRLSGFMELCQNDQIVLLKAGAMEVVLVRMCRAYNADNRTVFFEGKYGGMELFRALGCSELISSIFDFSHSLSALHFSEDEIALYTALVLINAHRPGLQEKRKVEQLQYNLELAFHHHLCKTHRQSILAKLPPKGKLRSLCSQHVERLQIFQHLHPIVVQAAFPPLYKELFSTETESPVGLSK

Sequence of human RAR-related orphan receptor alpha (hRORα) (P35398 whole entry): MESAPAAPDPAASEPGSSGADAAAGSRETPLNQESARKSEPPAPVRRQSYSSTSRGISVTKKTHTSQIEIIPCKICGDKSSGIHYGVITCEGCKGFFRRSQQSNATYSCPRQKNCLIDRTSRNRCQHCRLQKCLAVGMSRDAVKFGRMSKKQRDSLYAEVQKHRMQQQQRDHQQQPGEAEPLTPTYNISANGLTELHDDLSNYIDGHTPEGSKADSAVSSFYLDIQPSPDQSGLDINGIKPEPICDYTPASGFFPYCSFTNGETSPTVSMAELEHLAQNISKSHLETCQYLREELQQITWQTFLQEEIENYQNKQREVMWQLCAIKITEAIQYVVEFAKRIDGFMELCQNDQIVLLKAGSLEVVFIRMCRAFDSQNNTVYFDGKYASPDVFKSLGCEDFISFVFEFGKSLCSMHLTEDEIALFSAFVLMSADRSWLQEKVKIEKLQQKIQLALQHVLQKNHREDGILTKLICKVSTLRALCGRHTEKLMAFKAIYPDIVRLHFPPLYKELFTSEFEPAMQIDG
Sequence of human RORg ligand binding domain fused to yeast GAL4 DNA binding domain (P51449 269-508): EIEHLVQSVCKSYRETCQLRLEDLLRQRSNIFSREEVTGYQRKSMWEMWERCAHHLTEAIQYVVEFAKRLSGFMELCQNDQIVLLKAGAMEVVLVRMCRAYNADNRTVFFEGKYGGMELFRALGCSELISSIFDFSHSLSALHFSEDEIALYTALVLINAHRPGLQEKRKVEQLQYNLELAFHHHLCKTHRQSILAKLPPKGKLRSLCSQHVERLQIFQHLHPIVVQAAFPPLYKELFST
Sequence of human RAR-related orphan receptor beta (hRORβ) (Q92753 whole entry): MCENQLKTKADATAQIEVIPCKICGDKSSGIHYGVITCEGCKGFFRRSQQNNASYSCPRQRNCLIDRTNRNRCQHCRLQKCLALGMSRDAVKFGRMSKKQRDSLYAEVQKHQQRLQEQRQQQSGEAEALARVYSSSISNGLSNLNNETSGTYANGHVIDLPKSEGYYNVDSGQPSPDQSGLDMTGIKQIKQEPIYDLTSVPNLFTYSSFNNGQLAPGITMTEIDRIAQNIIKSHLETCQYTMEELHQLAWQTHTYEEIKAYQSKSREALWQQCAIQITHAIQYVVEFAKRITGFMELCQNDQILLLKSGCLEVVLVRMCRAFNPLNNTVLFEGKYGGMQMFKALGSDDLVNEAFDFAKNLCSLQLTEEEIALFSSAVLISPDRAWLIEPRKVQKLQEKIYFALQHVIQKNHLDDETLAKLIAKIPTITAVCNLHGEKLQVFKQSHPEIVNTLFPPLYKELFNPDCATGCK

Consider `CCS(=O)(=O)c1ccc(CNC(=O)c2cc3c(s2)C2(CCN(C(C)c4ccc(C(F)(F)F)nc4)CC2)OC(C)C3)cc1` (single isomer, unassigned; isomer 2) [Example 42, N-[4-(Ethylsulfonyl)benzyl]-5′-methyl-1-{1-[6-(trifluoromethyl)pyridin-3-yl]ethyl}-4′,5′-dihydrospiro[piperidine-4,7′-thieno[2,3-c]pyran]-2′-carboxamide isomer 2], for which the EC50 was 8.3 ± 3.8 nM in assay [1] and > 1 µM with PBMC. Besides, the results for the inhibitory constant (Ki) in assay [2], in assay [4] and in assay [5] were > 20400 nM, > 12500 nM and 4.42 ± 2.7 nM, respectively. Also, in assay [3], the IC50 was 19.9 ± 10.7 nM.

For the origin of these results see US11008336B2, “Compounds useful for inhibiting RORγt” (Eli Lilly and Company, priority 2017, dated 2021).
